Values of other authors as cited in US20180064655A1, “Hydroxynorketamine Transdermal Patch” (priority 2016, published 2018).

How the values were obtained:
[1] = in vivo
[2] = in vivo; remark: listed apart in the source
[3] = metabolite of ketamine
[4] = following a single administration

Row | SMILES | onset of antidepressant effects [4] | persistence of antidepressant effects [4] | efficacy as an antidepressant (in vivo) | side effects limiting clinical use [1] | ketamine-related side-effects [2] | antidepressant effect [3]
1 | CNC1(c2ccccc2Cl)CCCCC1=O (stereo not drawn) [Ketamine] | within hours | approximately one | rapid and robust efficacy as an antidepressant | abuse potential and sensory-dissociation side effects | – | –
2 | N[C@@]1(c2ccccc2Cl)CCC[C@@H](O)C1=O [(2R,6R)-HNK, (2R,6R)-hydroxynorketamine] | – | – | – | – | lacks ketamine-related side-effects | responsible for the antidepressant effect observed with ketamine treatment
